In US7999011B2, “Method for cardioprotection and neuroprotection by intravenous administration of halogenated volatile anesthetics” (Baxter International Inc., priority 2002, dated 2011):

Key:
[1] = Systemic hemodynamics during infarct experiment; format: in vivo, rabbit
Protocol: (§1) Male New Zealand white rabbits weighing between 2.5 and 3.0 kg were anesthetized with intravenous sodium pentobarbital (30 mg/kg). Additional doses of pentobarbital were titrated as required to assure that pedal and palpebral reflexes were absent throughout the experiment. A tracheotomy was performed through a ventral midline incision, and the trachea was cannulated. The rabbits were ventilated with positive pressure using an air-oxygen mixture (FiO2=0.33). […] Body temperature was maintained with a heating blanket. Heparin-filled catheters were inserted into the right carotid artery and the left jugular vein for measurement of arterial blood pressure and fluid or drug administration, respectively. Maintenance fluids consisted of 0.9% saline (15 ml/kg/h) that were continued for the duration of the experiment.
A left thoracotomy was performed at the fourth intercostal space, and the heart was suspended in a pericardial cradle. A prominent branch of the left anterior descending coronary artery (LAD) was selected, and a silk ligature was placed around this artery approximately halfway between the base and apex for the production of coronary artery occlusion and reperfusion in myocardial infarct size experiments. Each rabbit was anticoagulated with 500 U of heparin immediately before LAD occlusion. Coronary artery occlusion was verified by the presence of epicardial cyanosis and regional dyskinesia in the ischemic zone, and reperfusion was confirmed by observing an epicardial hyperemic response. Hemodynamics were continuously recorded on a polygraph throughout experimentation. After the surgical preparation, 30 min of stabilization were allowed.
(§2) Baseline measurements of systemic hemodynamics, arterial blood gas tensions, and blood concentrations of anesthetic agent were performed 30 min after instrumentation was completed. Rabbits received 0.9% saline, drug lipid vehicle (10 ml/h), or intravenous volatile anesthetic (10 ml/h) for 30 min. Infusions were discontinued 30 min prior to coronary occlusion (memory period). Blood concentrations of anesthetic agents were performed at baseline, at the end of anesthetic infusion, and at the end of the memory period just before coronary occlusion). HVA concentrations in blood were determined by gas chromatographic (GC) analysis. All rabbits underwent a 30 min LAD occlusion followed by 3 h reperfusion.
(§3) Statistical analysis of data within and between groups was performed with analysis of variance (ANOVA) for repeated measures followed by Student-Newman-Keuls test. Changes between groups were considered statistically significant when the p value was less than 0.05. All data are expressed as mean±SEM.

[2] = Arterial blood gas analysis; format: in vivo, rabbit; details: for pH: arterial blood
Protocol: as §1, §2, §3

[3] = Literature MAC values in rabbits and 1 MAC-equivalent blood concentration; format: in vivo; details: 37° C., rabbit; x=λn
Protocol: “Minimum alveolar concentration (MAC)”, as is known in the art, is the alveolar concentration of an anesthetic, administered by inhalation at a pressure of 1 atmosphere, that prevents movement in 50% of patients in response to a painful stimuli. The MAC is age-dependent; it may be affected by a patient's medical condition; and it may also be affected by other pharmaceutical agents that are administered to the patient. In the context of intravenous administration of HVAs, the term “MAC” or “MAC-equivalent” is intended to mean an intravenous dose which produces the same blood plasma concentration of an anesthetic agent as that attained by inhalational administration of a gaseous concentration of anesthetic which prevents such movement in 50% of patients.
Blood concentrations as measured by GC were converted to their MAC-equivalent values by calculations described below. Initially “n”, or the number of moles of HVA in 1 L of alveolar gas during exposure to 1.0 MAC of the HVA was calculated.
The number of moles of the HVA in 1 L at 37° C. at 1 MAC in rabbits was then used to determine the concentration of the HVA present in blood by using known blood/gas partition values (also known as λ). […] The value for “x” (or the equivalent blood concentration of the HVA at 1 MAC at 37° C. in rabbit) is then determined by the equation: x=λn

[4] = i.v. emulsion 10 ml/h for 30 min, Baseline

With `FC(F)OC(Cl)C(F)(F)F` (stereo not drawn) [ISO, isoflurane] as the compound, how does the MAP ([1]; Baseline) read?
Its MAP is 64 ± 5 mmHg.

And the RPP ([1]; Baseline)?
Its RPP is 17.7 ± 2 bpm × mmHg × 10^3.

What about the HR ([1]; Infusion) of the same compound?
The HR was 227 ± 14 bpm.

And the MAP ([1]; Infusion)?
The MAP was 57 ± 6 mmHg.

And the RPP ([1]; Infusion)?
The RPP was 16.2 ± 2.2 bpm × mmHg × 10^3.

And the MAP ([1]; Infusion, listed as isoflurane)?
Its MAP is “decreased”.

And the HR ([1]; Ischemia 30 min)?
Its HR is 220 ± 11 bpm.

What about the MAP ([1]; Ischemia 30 min) of the same compound?
The MAP was 54 ± 5 mmHg.

And the RPP ([1]; Ischemia 30 min)?
Its RPP is 14.3 ± 1.6 bpm × mmHg × 10^3.

What about the HR ([1]; Memory) of the same compound?
Its HR is 229 ± 10 bpm.

What about the MAP ([1]; Memory) of the same compound?
Its MAP is 62 ± 6 mmHg.

What about the RPP ([1]; Memory) of the same compound?
Its RPP is 16.7 ± 2 bpm × mmHg × 10^3.

What about the HR ([1]; Reperfusion 1 h) of the same compound?
Its HR is 212 ± 4 bpm.

And the MAP ([1]; Reperfusion 1 h)?
The MAP was 52 ± 3 mmHg.

And the RPP ([1]; Reperfusion 1 h)?
The RPP was 13.3 ± 0.8 bpm × mmHg × 10^3.

And the RPP ([1]; Reperfusion 1 h, listed as isoflurane)?
The RPP was “decreased”.

What about the HR ([1]; Reperfusion 2 h) of the same compound?
Its HR is 201 ± 6 bpm.

And the MAP ([1]; Reperfusion 2 h)?
Its MAP is 54 ± 3 mmHg.

And the RPP ([1]; Reperfusion 2 h)?
Its RPP is 13.2 ± 1 bpm × mmHg × 10^3.

And the HR ([1]; Reperfusion 3 h)?
Its HR is 195 ± 7 bpm.

What about the MAP ([1]; Reperfusion 3 h) of the same compound?
The MAP was 58 ± 3 mmHg.

And the RPP ([1]; Reperfusion 3 h)?
The RPP was 13.5 ± 1 bpm × mmHg × 10^3.

What about the HR [1, 4] of the same compound?
The HR was 240 ± 9 bpm.

And the PaCO2 ([2]; Baseline)?
The PaCO2 was 34 ± 2 mmHg.

What about the PaO2 ([2]; Baseline) of the same compound?
The PaO2 was 136 ± 17 mmHg.

And the PaCO2 ([2]; Infusion)?
Its PaCO2 is 34 ± 2 mmHg.

What about the PaO2 ([2]; Infusion) of the same compound?
The PaO2 was 124 ± 11 mmHg.

And the PaCO2 ([2]; Ischemia 30 min)?
Its PaCO2 is 33 ± 2 mmHg.

What about the PaO2 ([2]; Ischemia 30 min) of the same compound?
Its PaO2 is 166 ± 24 mmHg.

What about the PaCO2 ([2]; Memory) of the same compound?
The PaCO2 was 36 ± 2 mmHg.

And the PaO2 ([2]; Memory)?
The PaO2 was 146 ± 15 mmHg.

And the PaCO2 ([2]; Reperfusion 1 h)?
The PaCO2 was 31 ± 2 mmHg.

And the PaO2 ([2]; Reperfusion 1 h)?
The PaO2 was 167 ± 12 mmHg.

What about the PaCO2 ([2]; Reperfusion 2 h) of the same compound?
Its PaCO2 is 32 ± 2 mmHg.

And the PaO2 ([2]; Reperfusion 2 h)?
Its PaO2 is 169 ± 12 mmHg.

And the PaCO2 ([2]; Reperfusion 3 h)?
Its PaCO2 is 33 ± 2 mmHg.

What about the PaO2 ([2]; Reperfusion 3 h) of the same compound?
Its PaO2 is 160 ± 13 mmHg.

And the pH ([2]; Baseline)?
Its pH is 7.43 ± 0.02.

And the pH ([2]; Infusion)?
Its pH is 7.40 ± 0.03.

And the pH ([2]; Ischemia 30 min)?
The pH was 7.36 ± 0.02.

And the pH ([2]; Memory)?
The pH was 7.36 ± 0.02.

What about the pH ([2]; Reperfusion 1 h) of the same compound?
Its pH is 7.39 ± 0.02.

And the pH ([2]; Reperfusion 2 h)?
Its pH is 7.39 ± 0.02.

What about the pH ([2]; Reperfusion 3 h) of the same compound?
Its pH is 7.39 ± 0.01.

What about the “1 MAC-Equivalent Blood Concentration at 1 MAC ("x")” value [3] of the same compound?
The value was 1.06 mM.

What does the source list for `FCOC(C(F)(F)F)C(F)(F)F` [SEVO, sevoflurane]?
MAP ([1]; Baseline): increased; RPP ([1]; Baseline): 22.9 ± 1.3 bpm × mmHg × 10^3; MAP ([1]; Baseline, listed as SEV): 92 ± 4 mmHg; HR ([1]; Infusion): 235 ± 9 bpm; MAP ([1]; Infusion): increased; RPP ([1]; Infusion): 23.7 ± 1.7 bpm × mmHg × 10^3; MAP ([1]; Infusion, listed as SEV): 91 ± 4 mmHg; HR ([1]; Ischemia 30 min): 214 ± 8 bpm; MAP ([1]; Ischemia 30 min): 64 ± 5 mmHg; RPP ([1]; Ischemia 30 min): 15.7 ± 1.6 bpm × mmHg × 10^3; HR ([1]; Memory): 227 ± 11 bpm; MAP ([1]; Memory): 87 ± 4 mmHg; RPP ([1]; Memory): 22.1 ± 1.8 bpm × mmHg × 10^3; HR ([1]; Reperfusion 1 h): 206 ± 9 bpm; MAP ([1]; Reperfusion 1 h): 65 ± 3 mmHg; RPP ([1]; Reperfusion 1 h): 15.2 ± 1.3 bpm × mmHg × 10^3; HR ([1]; Reperfusion 2 h): 193 ± 10 bpm; MAP ([1]; Reperfusion 2 h): 65 ± 3 mmHg; RPP ([1]; Reperfusion 2 h): 14 ± 1.2 bpm × mmHg × 10^3; HR ([1]; Reperfusion 3 h): 188 ± 9 bpm; MAP ([1]; Reperfusion 3 h): 65 ± 2 mmHg; RPP ([1]; Reperfusion 3 h): 13.8 ± 0.8 bpm × mmHg × 10^3; HR [1, 4]: 227 ± 7 bpm; PaCO2 ([2]; Baseline): 37 ± 1 mmHg; PaO2 ([2]; Baseline): 125 ± 8^ mmHg; PaCO2 ([2]; Infusion): 38 ± 1 mmHg; PaO2 ([2]; Infusion): 118 ± 6 mmHg; PaCO2 ([2]; Ischemia 30 min): 40 ± 1 mmHg; PaO2 ([2]; Ischemia 30 min): 106 ± 12 mmHg; PaCO2 ([2]; Memory): 41 ± 1 mmHg; PaO2 ([2]; Memory): 107 ± 11 mmHg; PaCO2 ([2]; Reperfusion 1 h): 38 ± 1 mmHg; PaO2 ([2]; Reperfusion 1 h): 120 ± 7 mmHg; PaCO2 ([2]; Reperfusion 2 h): 38 ± 1 mmHg; PaO2 ([2]; Reperfusion 2 h): 127 ± 6^ mmHg; PaCO2 ([2]; Reperfusion 3 h): 39 ± 1 mmHg; PaO2 ([2]; Reperfusion 3 h): 121 ± 8 mmHg; pH ([2]; Baseline): 7.44 ± 0.01; pH ([2]; Infusion): 7.42 ± 0.01; pH ([2]; Ischemia 30 min): 7.38 ± 0.01; pH ([2]; Memory): 7.39 ± 0.01; pH ([2]; Reperfusion 1 h): 7.39 ± 0.01; pH ([2]; Reperfusion 2 h): 7.40 ± 0.01; pH ([2]; Reperfusion 3 h): 7.39 ± 0.01; 1 MAC-Equivalent Blood Concentration at 1 MAC ("x") [3]: 0.94 mM
